For 21 compounds, GI50 and TGI results are on record in PubChem BioAssay (NCI).

Molecules are shown by their SMILES. Several values for one entry are separate records, joined by “and”; a condition that tells them apart may be missing. Equal values may be shown once.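 Each compound was tested at five concentrations against cells in 96-well plates for 48 hours. At the GI50, growth is halved. TGI denotes the concentration required for complete inhibition of growth.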

One test concerns IGROV1 ovarian. The test is described as follows: inhibition of tumour cell growth, NCI panel, 48 h.
Take `COc1cc(/C=C/c2cc(/C=C/c3ccc(O)c(OC)c3)n(C(=O)c3ccccc3Br)n2)ccc1O`: the GI50 is 4.11 µM and the TGI is over 100 µM.

Consider `Cc1cc(Cl)nc(N(CCNc2ccnc3cc(Cl)ccc23)Cc2ccco2)n1`, for which the GI50 is 1.75 µM and the TGI was 3.66 µM.

As for `S=C1SCN(Cc2ccccc2)CN1Cc1ccco1`, the GI50 was 8.47 µM and the TGI was 26.4 µM.

As to `COc1ccccc1CNCCN1C(=O)c2ccc3c4c(ccc(c24)C1=O)C(=O)N(CCNCc1ccccc1OC)C3=O`, the GI50 was 0.203 µM and the TGI was 0.549 µM.

With `CCCCCCCCCCCC[C@@H](O)[C@H]1CC[C@H]([C@H](O)CC[C@H](O)[C@@H]2CC[C@@H](CCCCCCCC3=C[C@H](C)OC3=O)O2)O1`, the GI50 is 8.89 µM and the TGI is over 50 µM.

As for `O=C(c1cccs1)c1c(C(F)(F)F)n([O-])c2cc(Cl)c(Cl)cc2[n+]1=O`, the GI50 was 0.073 µM and the TGI was found to be 1.07 µM.

With `CSc1nc2nc(-c3ccccc3)c(C)c-2c2n1C(C)C(=O)N2` (stereo unspecified), the GI50 is 41.5 µM and the TGI is over 100 µM.

Regarding `C=CCN(CC=C)C(=O)c1cc(C)nc2c1c(=O)n(-c1ccccc1)c(=O)n2CCCN1CCN(c2ccccc2OC)CC1`, the GI50 was over 50 µM and the TGI is over 50 µM.

With `COc1cc(-c2nccc3[nH]c(-c4ccc5cc[nH]c5c4)nc23)cc(OC)c1OC`, the GI50 is 0.015 µM and the TGI is 3.77 µM.

Regarding `COc1ccccc1Oc1nccc(-c2c(-c3ccc(F)cc3)ncn2C2CCNCC2)n1`, the GI50 is over 22.6 µM and the TGI was over 25 µM.

Regarding `COc1cc(C(=O)/C=C/c2cccc(Nc3ccnc4cc(Cl)ccc34)c2)cc(OC)c1OC`, the GI50 is 1.32 µM and the TGI worked out at 3.8 µM.

As for `Cc1ccc(S(=O)(=O)NCCCCC(N)C(=O)O)cc1` (stereo unspecified), the TGI is over 100 µM.

Regarding `O=C(O)CN(CCN(CC(=O)O)CC(=O)O)CC(=O)O.[Mn+2]`, the GI50 is over 100 µM and the TGI was over 100 µM.

As to `Nc1nc(=S)c2ncn(C3OC(COP(=O)(O)O)C(O)C3O)c2[nH]1` (stereo unspecified), the GI50 was 5.23 µM and the TGI is over 100 µM.

On to `CC(=O)O[C@H]1CC2C(C3CC[C@H](C(C)CCC(=O)O)[C@]31C)[C@H](OC(C)=O)C[C@@H]1CC3(CC[C@]21C)OOC1(CCC(C)CC1)OO3` (stereo partly specified), for which the TGI was 4.64 µM and 2.76 µM.

In the case of `CCCCCC/C=C\CCCCCCCCC(=O)c1cccc(OC)c1OC`, the TGI was over 100 µM.

A further test relates to HS 578T breast. The test is described as follows: inhibition of tumour cell growth, NCI panel, 48 h.
Regarding `CCc1ccc(Nc2cc(C)c3ccc(O)cc3n2)cc1`, the GI50 was 10.3 µM and the TGI worked out at 31.8 µM.

Take `[O]=[V]([OH])([OH])[OH]`: the GI50 was over 100 µM and the TGI was over 100 µM.

Take `CNCc1ccc(-c2cc(-c3nc(-c4ccc(S(=O)(=O)C(C)C)cc4)cnc3N)on2)cc1`: the GI50 is 4.61 µM and the TGI was 38 µM.

Take `COc1ccc(Nc2cnc3cc(N)cc(N)c3n2)cc1`: the GI50 was 21.9 µM and the TGI came to 63.3 µM.

As for `COc1cc(/C=C/c2cc(/C=C/c3ccc(O)c(OC)c3)n(C(=O)c3ccccc3Br)n2)ccc1O`, the GI50 is 2.75 µM and the TGI worked out at 48.6 µM.

Take `Cc1cc(Cl)nc(N(CCNc2ccnc3cc(Cl)ccc23)Cc2ccco2)n1`: the GI50 was 2.27 µM and the TGI is 6.32 µM.

As to `S=C1SCN(Cc2ccccc2)CN1Cc1ccco1`, the GI50 was 19.7 µM and the TGI is 81.5 µM.

`COc1ccccc1CNCCN1C(=O)c2ccc3c4c(ccc(c24)C1=O)C(=O)N(CCNCc1ccccc1OC)C3=O`: the GI50 is 1.17 µM and the TGI was 4.88 µM.

As to `CCCCCCCCCCCC[C@@H](O)[C@H]1CC[C@H]([C@H](O)CC[C@H](O)[C@@H]2CC[C@@H](CCCCCCCC3=C[C@H](C)OC3=O)O2)O1`, the GI50 is over 50 µM and the TGI is over 50 µM.

As for `O=C(c1cccs1)c1c(C(F)(F)F)n([O-])c2cc(Cl)c(Cl)cc2[n+]1=O`, the GI50 was 2.02 µM and the TGI was 4.11 µM.

For the compound `CSc1nc2nc(-c3ccccc3)c(C)c-2c2n1C(C)C(=O)N2` (stereo unspecified), the GI50 is 77.5 µM and the TGI was over 100 µM.

For `C=CCN(CC=C)C(=O)c1cc(C)nc2c1c(=O)n(-c1ccccc1)c(=O)n2CCCN1CCN(c2ccccc2OC)CC1`, the GI50 is over 50 µM and the TGI is over 50 µM.

For `COc1cc(-c2nccc3[nH]c(-c4ccc5cc[nH]c5c4)nc23)cc(OC)c1OC`, the GI50 is under 0.01 µM and the TGI was determined as 10.3 µM.

On to `COc1ccccc1Oc1nccc(-c2c(-c3ccc(F)cc3)ncn2C2CCNCC2)n1`, for which the GI50 was over 6.75 µM and the TGI was over 23 µM.

For `COc1cc(C(=O)/C=C/c2cccc(Nc3ccnc4cc(Cl)ccc34)c2)cc(OC)c1OC`, the GI50 was 2.49 µM and the TGI amounted to 14.2 µM.

Compound `Cc1ccc(S(=O)(=O)NCCCCC(N)C(=O)O)cc1` (stereo unspecified) came in with a TGI of over 100 µM.

For `O=C(O)CN(CCN(CC(=O)O)CC(=O)O)CC(=O)O.[Mn+2]`, the GI50 was over 100 µM and the TGI is over 100 µM.

Turning to `Nc1nc(=S)c2ncn(C3OC(COP(=O)(O)O)C(O)C3O)c2[nH]1` (stereo unspecified), the GI50 was 6.36 µM and the TGI was over 100 µM.

Regarding `CC(=O)O[C@H]1CC2C(C3CC[C@H](C(C)CCC(=O)O)[C@]31C)[C@H](OC(C)=O)C[C@@H]1CC3(CC[C@]21C)OOC1(CCC(C)CC1)OO3` (stereo partly specified), the TGI was 13.8 µM and 4.77 µM.

Consider `O=C(COc1ccc(/C=C2\Oc3ccccc3C2=O)cc1)Nc1nc2ccccc2s1`, for which the GI50 is 18.1 µM and the TGI turned out to be 96.4 µM.

Take `CCCCCC/C=C\CCCCCCCCC(=O)c1cccc(OC)c1OC`: the TGI was over 100 µM.

A further test deals with MDA-MB-435. The test is described as follows: inhibition of tumour cell growth, NCI panel, 48 h.
Take `CCc1ccc(Nc2cc(C)c3ccc(O)cc3n2)cc1`: the GI50 was 6.94 µM and the TGI came to 20.3 µM.

On to `[O]=[V]([OH])([OH])[OH]`, for which the GI50 was 79.2 µM and the TGI was over 100 µM.

`CNCc1ccc(-c2cc(-c3nc(-c4ccc(S(=O)(=O)C(C)C)cc4)cnc3N)on2)cc1`: the GI50 is 1.35 µM and the TGI is 2.79 µM.

In the case of `COc1ccc(Nc2cnc3cc(N)cc(N)c3n2)cc1`, the GI50 was 16.7 µM and the TGI worked out at 33.8 µM.

Take `COc1cc(/C=C/c2cc(/C=C/c3ccc(O)c(OC)c3)n(C(=O)c3ccccc3Br)n2)ccc1O`: the GI50 is 0.687 µM and the TGI worked out at 8.06 µM.

Regarding `Cc1cc(Cl)nc(N(CCNc2ccnc3cc(Cl)ccc23)Cc2ccco2)n1`, the GI50 is 1.76 µM and the TGI came out at 3.4 µM.

For `S=C1SCN(Cc2ccccc2)CN1Cc1ccco1`, the GI50 was 1.67 µM and the TGI came out at 10.4 µM.

For `CCCCCCCCCCCC[C@@H](O)[C@H]1CC[C@H]([C@H](O)CC[C@H](O)[C@@H]2CC[C@@H](CCCCCCCC3=C[C@H](C)OC3=O)O2)O1`, the GI50 was 1.49 µM and the TGI is over 50 µM.

For the compound `O=C(c1cccs1)c1c(C(F)(F)F)n([O-])c2cc(Cl)c(Cl)cc2[n+]1=O`, the GI50 is 1.5 µM and the TGI turned out to be 3.12 µM.

For `CSc1nc2nc(-c3ccccc3)c(C)c-2c2n1C(C)C(=O)N2` (stereo unspecified), the GI50 is 32.9 µM and the TGI is over 100 µM.

Take `C=CCN(CC=C)C(=O)c1cc(C)nc2c1c(=O)n(-c1ccccc1)c(=O)n2CCCN1CCN(c2ccccc2OC)CC1`: the GI50 was over 50 µM and the TGI was over 50 µM.

Take `COc1ccccc1Oc1nccc(-c2c(-c3ccc(F)cc3)ncn2C2CCNCC2)n1`: the GI50 was over 24.1 µM and the TGI is over 25 µM.

`Cc1ccc(S(=O)(=O)NCCCCC(N)C(=O)O)cc1` (stereo unspecified) gave a TGI of over 100 µM.

For the compound `O=C(O)CN(CCN(CC(=O)O)CC(=O)O)CC(=O)O.[Mn+2]`, the GI50 is over 100 µM and the TGI is over 100 µM.

For `Nc1nc(=S)c2ncn(C3OC(COP(=O)(O)O)C(O)C3O)c2[nH]1` (stereo unspecified), the GI50 is 2.48 µM and the TGI is over 100 µM.

Consider `CC(=O)O[C@H]1CC2C(C3CC[C@H](C(C)CCC(=O)O)[C@]31C)[C@H](OC(C)=O)C[C@@H]1CC3(CC[C@]21C)OOC1(CCC(C)CC1)OO3` (stereo partly specified), for which the TGI was 18.7 µM and 7.76 µM.

As for `O=C(COc1ccc(/C=C2\Oc3ccccc3C2=O)cc1)Nc1nc2ccccc2s1`, the GI50 is 8.21 µM and the TGI is over 100 µM.

As for `CCCCCC/C=C\CCCCCCCCC(=O)c1cccc(OC)c1OC`, the TGI is over 100 µM.

The subject of the next test is SK-MEL-5 melanoma. The test is described as follows: inhibition of tumour cell growth, NCI panel, 48 h.
Turning to `CCc1ccc(Nc2cc(C)c3ccc(O)cc3n2)cc1`, the GI50 was 4.08 µM and the TGI came to 14.3 µM.

Take `[O]=[V]([OH])([OH])[OH]`: the GI50 was over 100 µM and the TGI was over 100 µM.

Turning to `CNCc1ccc(-c2cc(-c3nc(-c4ccc(S(=O)(=O)C(C)C)cc4)cnc3N)on2)cc1`, the GI50 was 2.59 µM and the TGI was 12.3 µM.

Turning to `COc1ccc(Nc2cnc3cc(N)cc(N)c3n2)cc1`, the GI50 was 16 µM and the TGI came out at 29.8 µM.

On to `COc1cc(/C=C/c2cc(/C=C/c3ccc(O)c(OC)c3)n(C(=O)c3ccccc3Br)n2)ccc1O`, for which the GI50 is 2.56 µM and the TGI was 13.3 µM.

Turning to `Cc1cc(Cl)nc(N(CCNc2ccnc3cc(Cl)ccc23)Cc2ccco2)n1`, the GI50 is 1.67 µM and the TGI came out at 3.06 µM.

On to `S=C1SCN(Cc2ccccc2)CN1Cc1ccco1`, for which the GI50 is 11.7 µM and the TGI came out at 26.9 µM.

As to `COc1ccccc1CNCCN1C(=O)c2ccc3c4c(ccc(c24)C1=O)C(=O)N(CCNCc1ccccc1OC)C3=O`, the GI50 was 0.348 µM and the TGI came out at 1.4 µM.

Regarding `CCCCCCCCCCCC[C@@H](O)[C@H]1CC[C@H]([C@H](O)CC[C@H](O)[C@@H]2CC[C@@H](CCCCCCCC3=C[C@H](C)OC3=O)O2)O1`, the GI50 is 1.3 µM; the TGI was 7.93 µM and > 50 µM.

For `O=C(c1cccs1)c1c(C(F)(F)F)n([O-])c2cc(Cl)c(Cl)cc2[n+]1=O`, the GI50 is 1.28 µM and the TGI stood at 2.65 µM.

Take `CSc1nc2nc(-c3ccccc3)c(C)c-2c2n1C(C)C(=O)N2` (stereo unspecified): the GI50 is 16.9 µM and the TGI amounted to 35.5 µM.

Turning to `C=CCN(CC=C)C(=O)c1cc(C)nc2c1c(=O)n(-c1ccccc1)c(=O)n2CCCN1CCN(c2ccccc2OC)CC1`, the GI50 was over 50 µM and the TGI was over 50 µM.

For the compound `COc1cc(-c2nccc3[nH]c(-c4ccc5cc[nH]c5c4)nc23)cc(OC)c1OC`, the GI50 was under 0.01 µM and the TGI amounted to 0.563 µM.

Consider `COc1ccccc1Oc1nccc(-c2c(-c3ccc(F)cc3)ncn2C2CCNCC2)n1`, for which the GI50 is 7.2 µM and the TGI was over 25 µM.

Turning to `COc1cc(C(=O)/C=C/c2cccc(Nc3ccnc4cc(Cl)ccc34)c2)cc(OC)c1OC`, the GI50 is 1.38 µM and the TGI was found to be 2.67 µM.

The compound `Cc1ccc(S(=O)(=O)NCCCCC(N)C(=O)O)cc1` (stereo unspecified) displayed a TGI of over 100 µM.

Regarding `O=C(O)CN(CCN(CC(=O)O)CC(=O)O)CC(=O)O.[Mn+2]`, the GI50 was over 100 µM and the TGI was over 100 µM.

For the compound `Nc1nc(=S)c2ncn(C3OC(COP(=O)(O)O)C(O)C3O)c2[nH]1` (stereo unspecified), the GI50 was 3.25 µM and the TGI worked out at 11.7 µM.

As for `CC(=O)O[C@H]1CC2C(C3CC[C@H](C(C)CCC(=O)O)[C@]31C)[C@H](OC(C)=O)C[C@@H]1CC3(CC[C@]21C)OOC1(CCC(C)CC1)OO3` (stereo partly specified), the GI50 was 7.2 µM and 3.39 µM; the TGI was 20.1 µM and 12.5 µM.

With `O=C(COc1ccc(/C=C2\Oc3ccccc3C2=O)cc1)Nc1nc2ccccc2s1`, the GI50 was 29.7 µM and the TGI is over 100 µM.

`CCCCCC/C=C\CCCCCCCCC(=O)c1cccc(OC)c1OC` came in with a TGI of 60.9 µM.
